Reference: ChEMBL document CHEMBL1127171, “N-2 methylated quaternary derivatives of -carboline-3-carboxylates inhibit acetylcholinesterase in vitro” (Bioorg Med Chem Lett, 1993)
Activity calls are given as the source filed them. No cut-off for these calls is given here.

How the values were obtained:
[1] = target: GABA-A receptor; anion channel; assay: Displacement of [3H]flunitrazepam from GABA-A benzodiazepine receptor (BZR) of rat brain membranes; format: cell membranes, Membrane
[2] = target: Acetylcholinesterase (Electrophorus electricus) (UniProt O42275); assay: The compound was tested in vitro for the inhibition of acetylcholinesterase (AChE) isolated from electric eel at 10e-6 M
[3] = target: Muscarinic acetylcholine receptor; assay: The compound was tested in vitro for its binding affinity to muscarinic receptor on rat brain membrane by competitive binding assay using [3H]-QNB
[4] = target: Acetylcholinesterase (Electrophorus electricus) (UniProt O42275); assay: The compound was tested in vitro for the inhibition of acetylcholinesterase (AChE) isolated from electric eel at 10e-5 M
[5] = target: Acetylcholinesterase (Electrophorus electricus) (UniProt O42275); assay: The compound was tested in vitro for the inhibition of acetylcholinesterase (AChE) isolated from electric eel at 10e-5 M; NA means no significant activity at 10e-3 M
[6] = target: GABA-A receptor; anion channel; assay: Displacement of [3H]flunitrazepam from GABA-A benzodiazepine receptor (BZR) of rat brain membranes (NA = no significant activity); format: cell membranes, Membrane
[7] = target: Acetylcholinesterase (Electrophorus electricus) (UniProt O42275); assay: The compound was tested in vitro for the inhibition of acetylcholinesterase (AChE) isolated from electric eel at 10e-6 M; NA means no significant activity at 10e-3 M
[8] = tested on: GABA-A receptor; anion channel; assay: Displacement of [3H]flunitrazepam from GABA-A benzodiazepine receptor (BZR) of rat brain membranes (NA = no significant activity at 10e-3 M); format: cell membranes, Membrane

Chain of Acetylcholinesterase (Electrophorus electricus) (O42275 24-633 limits assumed): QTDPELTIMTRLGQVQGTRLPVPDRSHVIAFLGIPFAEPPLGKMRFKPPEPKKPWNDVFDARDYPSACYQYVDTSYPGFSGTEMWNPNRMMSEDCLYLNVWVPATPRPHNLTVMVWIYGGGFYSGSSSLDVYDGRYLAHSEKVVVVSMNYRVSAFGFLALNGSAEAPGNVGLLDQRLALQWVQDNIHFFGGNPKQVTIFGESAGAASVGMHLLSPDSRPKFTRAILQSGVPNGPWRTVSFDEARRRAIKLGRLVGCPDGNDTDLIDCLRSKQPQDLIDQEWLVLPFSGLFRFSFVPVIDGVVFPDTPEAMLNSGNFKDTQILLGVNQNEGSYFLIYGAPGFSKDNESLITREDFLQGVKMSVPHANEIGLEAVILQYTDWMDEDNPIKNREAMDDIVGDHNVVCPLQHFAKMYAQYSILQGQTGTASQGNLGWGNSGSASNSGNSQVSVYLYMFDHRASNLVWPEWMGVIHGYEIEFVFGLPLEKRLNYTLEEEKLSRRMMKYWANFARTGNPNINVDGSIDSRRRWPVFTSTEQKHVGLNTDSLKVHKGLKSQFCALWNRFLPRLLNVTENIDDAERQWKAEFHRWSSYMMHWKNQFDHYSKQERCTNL

COC(=O)c1cc2c(c[n+]1C)[nH]c1ccccc12
Ki [1]: 1400 nM
inhibition [2]: 7.2%
Ki [3]: 3100 nM
inhibition [4]: 43.1%

CCOC(=O)c1cc2c(c[n+]1C)[nH]c1ccccc12.[I-]
Ki [1]: 3200 nM
inhibition [2]: 13.7%
Ki [3]: 700 nM
inhibition [4]: 60.9%

CCCOC(=O)c1cc2c(c[n+]1C)[nH]c1ccccc12.[I-]
Ki [1]: 600 nM
inhibition [2]: 34.9%
Ki [3]: 1000 nM
inhibition [4]: 80.1%

CN(C)C(=O)Oc1ccc[n+](C)c1
inhibition [2]: 59%
inhibition [4]: 93%

COC(=O)c1cc2c(cn1)[nH]c1ccccc12 [BETA-CCM]
inhibition [5]: inactive
Ki [6]: 3 nM
inhibition [7]: inactive

CC(C)OC(=O)c1cc2c(c[n+]1C)[nH]c1ccccc12.[I-]
Ki [1]: 4100 nM
inhibition [2]: 14%
Ki [3]: 500 nM
inhibition [4]: 62%

CCOC(=O)c1cc2cc[nH]c2c[n+]1C.[I-]
inhibition [2]: 4%
Ki [8]: Not Active
inhibition [4]: 17%

CCCCOC(=O)c1cc2c(c[n+]1C)[nH]c1ccccc12.[I-]
Ki [1]: 4600 nM
inhibition [2]: 46%
Ki [3]: 500 nM
inhibition [4]: 88%

CNC(=O)c1cc2c(c[n+]1C)[nH]c1ccccc12.[I-]
Ki [1]: 600 nM
inhibition [2]: 1.3%
Ki [3]: 27000 nM
inhibition [4]: 7.4%

C[n+]1ccc2c(c1)[nH]c1ccccc12 [NORMELINONINE F]
inhibition [2]: 7.6%
Ki [8]: Not Active
inhibition [4]: 41.2%
